# Values joined by “and” are separate entries in the source; they are usually repeats but may differ in a detail not shown here. Identical values can stand only once.
# B1: mIFNβ: murine interferon-beta (protein, UniProt P01575 22-182, looked up)
# Interferon beta: INYKQLQLQERTNIRKCQELLEQLNGKINLTYRADFKIPMEMTEKMQKSYTAFAIQEMLQNVFLVFRNNFSSTGWNETIVVRLLDELHQQTVFLKTVLEEKQEERLTWEMSSTALHLKSYYWRVQRYLKLMKYNSYAWMVVRAEIFRNFLIIRRLTRNFQN
# Key:
# [1] = tested on: HeLa cells; experiment: Azide metabolic labeling of HeLa cells with AzNAM, reaction with DBCO-FAM, fluorescent plate reader; assay type: cell-based, human; conditions: AzNAM 10-125 μM, 20 hours, DBCO-FAM 10 μM, 96-well plate reader
# Procedure: Initially, cells were cultured in a suitable culture vessel such that their level of confluency at the time of addition of the azide-modified sugar, AzNAM, was not more than 80%.
# In particular, HeLa cells were plated in 6-well plates (2.5×10^4 cells/well) and incubated for 48 hours in DMEM-10% FBS medium in a standard 5% CO2 atmosphere. Medium from each well was removed, and each well was washed with 2 ml of phosphate buffered saline (PBS), and fresh DMEM-FBS (1 ml) added. Subsequently, varying amounts of AzNAM (solubilized in DMSO) were added to the wells in small (10 μl) volumes to produce the desired final concentrations in the range 10-125 μM (see, FIG. 1). After an additional 20 hours incubation, the medium in each well was removed, and the wells were washed with 2 ml of PBS, followed by addition of 1 ml of PBS. Then, a fluorescent azide reactive molecule, DBCO-FAM (Broadpharm), was directly added to each well to produce a final concentration of 10 μM.
# Plates with added DBCO-FAM were protected from bright light and incubated for 1 hour at room temperature. Supernatants in each well were removed, and each well was washed twice with 2 ml of PBS. […] After pelleting and washing in PBS, cells were resuspended in 150 μl of PBS and counted. Defined numbers in 50 μl volumes in a 96-well Blackwell plate (Corning) were assayed for fluorescence in a fluorescent plate reader (Tecan).
# [2] = tested on: murine ovarian cancer cell line ID8; experiment: Metabolic labeling (AzNAM/DPEG-FAM) of ID8 cells, flow cytometric analysis; assay type: cell-based
# Description: For Examples 7-11, metabolic labeling was monitored by treatment of cultured cells with the sugar analog peracetylated N-azidoacetylmannosamine (AzNAM), followed after harvest with treatment with the bifunctional click/fluorescent compound DBCO-PEG3-FAM (DPEG-FAM). Surface azide groups resulting from the metabolic labeling process react with the DBCO group (dibenzocyclooctyne) of DPEG-FAM, and were monitored by flow cytometry.
# The murine ovarian cancer cell line ID8 represent an example of a cell type giving a relatively low metabolic labeling response, as assessed by AzNAM/DPEG-FAM as usual, results shown in FIGS. 22A-22D. Subconfluent ID8 cells were treated with or without 100 ng/ml murine interferon-beta (mIFNβ), and then treated with AzNAM and DPEG-FAM in a similar manner as for the Jurkat cells of Examples 7 and 8. […] FIGS. 22A-22D show flow cytometric analysis of murine ID8 cells after treatment with 100 ng/ml murine IFN-beta for 3 days, with addition of 100 μM AzNAM at 22 hr prior to harvest. Cells were treated with DPEG-FAM prior to flow analysis.
# The murine-specific STING agonist DMXAA (R&D Systems) was used to test ID8 cells with a similar experimental arrangement as for Example 9. […] FIGS. 24A-24D show flow cytometric analysis of murine ID8 cells after treatment with 20 μM murine STING agonist DMXAA for 3 days, with addition of 100 μM AzNAM at 22 hr prior to harvest. Cells were treated with DPEG-FAM prior to flow analysis.
# [3] = tested on: HeLa cells; experiment: Flow cytometry of AzNAM-labeled HeLa cells reacted with DBCO-FAM; assay type: cell-based, human; conditions: AzNAM 125 μM, 20 hours, versus cells receiving no azide-modified sugar
# Procedure: In separate cultures, HeLa cells were added to wells of a 12-well plate at 10,000 cells/well, and cultured for 72 hours under normal conditions. The wells were washed with 1 ml of PBS, and 0.5 ml of DMEM-10% FBS was added. AzNAM was added to a final concentration of 125 μM, with cells receiving no azide-modified sugar as controls. After 20 hours, cells were harvested with CellStripper (250 μl/well), washed with PBS, and subjected to flow analysis.
# [4] = tested on: HeLa cells; experiment: Surface template / ligation-template (LT) qPCR assay on azide-labeled HeLa cells; assay type: cell-based, human; conditions: HeLa cells treated with greater than 6 μM of AzNAM
# Description: For example, a nuclease-resistant template (with a 2′-O-methyl RNA backbone) can be modified with a 5′ or 3′ DBCO group, allowing it to specifically react with azides on the surface of metabolically labeled cells. Following this, the template-bearing cells can be treated with two shorter “ligation template” (LT) oligonucleotides each complementary to contiguous regions of the template, and where one of the LT oligonucleotides bears a 5′-phosphate (LT1). After annealing, the 5′-phosphate of LT1 can be ligated with the 3′-hydroxyl on its partner LT (LT2) adjacent on the same template (see, FIG. 16). For this ligation, a ligase enzyme can be used that is compatible with modified nucleic acid backbones, such as Splint® Ligase (New England Biolabs). Since each LT oligonucleotide is also equipped with an additional priming site, the joined LT (1+2) sequence can be amplified by PCR, and can also easily be amenable to quantitation by qPCR. […]
# To apply the surface template/LT assay to azide-labeled HeLa cells, cells were treated with several concentrations of AzNAM in 6-well plates at about 80% confluency. After 20 hours, cells were removed from the plate with CellStripper, washed with […] (SF-RPMI), and counted. […]
# LT1 and LT2 oligonucleotides complementary to the surface template were added in equimolar quantities to a final concentration of 0.2 pmol/μl. […]
# [5] = tested on: Jurkat cells (human T lymphoma); experiment: Metabolic labeling (AzNAM/DPEG-FAM) of Jurkat cells, flow cytometric analysis; assay type: cell-based
# Procedure: Surface azide groups resulting from the metabolic labeling process react with the DBCO group (dibenzocyclooctyne) of DPEG-FAM, and were monitored by flow cytometry.
# 22 hr prior to harvest, cell media were supplemented with […] AzNAM or control solvent only (DMSO). After harvest and washing, cells (10^6 cells/ml) were treated with 2 mM DPEG-FAM, washed, and subjected to flow cytometric analysis. […] FIGS. 20A-20D show flow cytometric analysis of human Jurkat cells after treatment with 100 ng/ml human IFN-beta for three days, with addition of 100 μM AzNAM at 22 hr prior to harvest. Cells were treated with DPEG-FAM prior to flow analysis.
# FIGS. 21A-21D show flow cytometric analysis of human Jurkat cells after treatment with 75 ng/ml human IFN-beta for 3 days, with addition of 100 μM AzNAM at 22 hr prior to harvest. Cells were treated with DPEG-FAM prior to flow analysis.
# FIGS. 23A-23D show flow cytometric analysis of human Jurkat cells after treatment with 50 μM STING agonist 1 (STAG1) for 3 days, with addition of 100 μM AzNAM at 22 hr prior to harvest. Cells were treated with DPEG-FAM prior to flow analysis.
# [6] = tested on: HeLa cells; experiment: Detection of cell-surface template on AzNAM-labeled HeLa cells with bi-labeled FAM complementary probe, flow analysis; assay type: cell-based, human; conditions: AzNAM-treated HeLa cells with surface template; 800 pmol probe, 30 minutes
# Description: Specific cell surface template (positioned by means of click chemical reactions with metabolically derived surface AzNAM; as described in Example 3) can be detected with alternate methods. One such approach uses probe nucleic acid molecules that are complementary to the template of interest, where both 5′- and 3′-ends of such probes are both modified with a fluorescent group, such as FAM.
# For example, HeLa cells with surface template of the same sequence as in Example 3 but with a DNA backbone were treated with a 5′/3′ bi-labeled complementary probe of sequence: […] (SEQ ID NO:72). The same cells were also treated with a control bi-labeled scrambled oligonucleotide of sequence CTT […] (SEQ ID NO:73). For treatments, 10^5 washed AzNAM-labeled HeLa cells in 100 μl of serum-free RPMI 1640 medium were incubated with 800 pmol of complementary or scrambled bi-labeled oligonucleotides for 30 minutes at room temperature. Cells were centrifuged (3 minutes at 2000 rpm) and washed once with 500 μl of serum-free RPMI 1640 medium and once with the same volume of PBS. Cells were finally resuspended in 200 μl of PBS and subjected to standard flow analysis.
molecule,measurement,setting,value
"CC(=O)OC[C@H]1OC(OC(C)=O)[C@@H](NC(=O)CN=[N+]=[N-])[C@@H](OC(C)=O)[C@@H]1OC(C)=O (some centres unmarked) [AzNAM, peracetylated N-azidoacetylmannosamine]",cell-associated fluorescence,[1],increased as a function of the levels of AzNAM
same,geometric mean fluorescence (GM),"[2]; ID8/AzNAM (Ctrl): 100 μM AzNAM at 22 hr prior to harvest, no-treatment control, DPEG-FAM",37.68 and 19.14
same,flow analysis peak shift,[3],marked and well-demarcated peak shifts
same,increase over background in formation of the templated LT product,[4],over an order of magnitude
Cc1ccc2c(=O)c3cccc(CC(=O)O)c3oc2c1C [DMXAA],geometric mean fluorescence (GM),"[2]; ID8/AzNAM+DMXAA: 20 μM DMXAA 3 days, 100 μM AzNAM 22 hr prior to harvest",33.73
same,geometric mean fluorescence (GM),"[2]; ID8/Ctrl+DMXAA: 20 μM DMXAA 3 days, control solvent only",1.67
same,AzNAM/DPEG-FAM response enhancement relative to the untreated value,"[2]; ID8, 20 μM DMXAA 3 days",1.8 fold
same,effect on comparably-treated DMSO controls,"[2]; ID8, 20 μM DMXAA 3 days",no effect
O=C(NCc1ccco1)c1ccc2c(c1)N(Cc1c(F)cccc1Cl)C(=O)CS2 [STAG1],impact on control DMSO-treated cells,"[5]; Jurkat, 50 μM STAG1 3 days",minimal
same,metabolic labeling enhancement relative to the untreated value,"[5]; Jurkat, 50 μM STAG1 3 days",1.2 fold
same,geometric mean fluorescence (GM),"[5]; Jurkats/AzNAM+STAG1: 50 μM STAG1 3 days, 100 μM AzNAM 22 hr prior to harvest",325.69
same,geometric mean fluorescence (GM),"[5]; Jurkats/DMSO+STAG1: 50 μM STAG1 3 days, control solvent only",1.47
"complementary oligonucleotide: 5′/3′ FAM bi-labeled probe complementary to surface template, SEQ ID NO:72 (DNA TCCAGATGTCTTTGCTTTTCTTCAGGACACA; 5' and 3' FAM labels, chemistry not fully specified)",fluorescent peak relative to cells incubated with control scrambled oligonucleotide,[6],significantly shifted fluorescent peak
B1,geometric mean fluorescence (GM),"[2]; ID8/AzNAM+mIFNβ: 100 ng/ml murine IFN-beta 3 days, 100 μM AzNAM 22 hr prior to harvest",80.58
same,geometric mean fluorescence (GM),"[2]; ID8/DMSO+mIFNβ: 100 ng/ml murine IFN-beta 3 days, control solvent only",16.49
same,labeling change in control DMSO cells,"[2]; ID8, 100 ng/ml mIFNβ 3 days",much reduced labeling increase
same,labeling enhancement of AzNAM-treated cells relative to the untreated value,"[2]; ID8, 100 ng/ml mIFNβ 3 days",2.1 fold

# Source: patent US20230414764A1, “Template Assembly by Proximity-Enhanced Reactivity via Metabolic Labeling” (The General Hospital Corporation, priority 2020, published 2023)
